From patent publication US11130769B2 (Prelude Therapeutics Incorporated, priority 2018, dated 2021) come the findings set out here.

For orientation: IC50 means the concentration that gives 50% inhibition.

Read-outs that look alike come from different tables or passages of the source. A value given as a limit tells only on which side of the number the result lay.

For one experiment, the target named is MCL-1 (Homo sapiens (Human), UniProt Q07820). The experiment is described as follows: Cell free Mcl-1:Bim affinity assay (fluorescence polarization competition). The experiment is classed as binding. Particulars: 15 nM MCL-1, 5 nM FITC-Bim, 1 hour at room temperature, read-out: BIM_Ki. Put shortly:
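Fluorescence polarization competition: 10-point 3-fold compound dilutions displaced 5 nM FITC-Bim from 15 nM MCL-1 over 1 h at room temperature. Ki was derived from the fitted IC50 using the Nikolovska-Coleska equation, with percent inhibition normalized to DMSO and positive controls.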
A general note: In fluorescence polarisation assays a small probe gives low polarisation when free and higher when bound to something large.

In the next experiment the test system is H929 cells. The experiment is described as follows: Cell viability assay (H929 10 FBS). The experiment is classed as cell-based. Particulars: Homo sapiens, NCI-H929, 24 hours, read-out: H929_10FBS IC50. The method, boiled down:
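ATP-based luminescence (CellTiter-Glo or ATPlite 1 Step, 30-60 min at RT) gauged viability of H929 myeloma cells after 24 h compound treatment at 37 °C. Cells plated at 4000 per well in 10% FBS RPMI 1640 supplemented with pyruvate, HEPES and glucose.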

Sequence of MCL-1 (Q07820 whole entry): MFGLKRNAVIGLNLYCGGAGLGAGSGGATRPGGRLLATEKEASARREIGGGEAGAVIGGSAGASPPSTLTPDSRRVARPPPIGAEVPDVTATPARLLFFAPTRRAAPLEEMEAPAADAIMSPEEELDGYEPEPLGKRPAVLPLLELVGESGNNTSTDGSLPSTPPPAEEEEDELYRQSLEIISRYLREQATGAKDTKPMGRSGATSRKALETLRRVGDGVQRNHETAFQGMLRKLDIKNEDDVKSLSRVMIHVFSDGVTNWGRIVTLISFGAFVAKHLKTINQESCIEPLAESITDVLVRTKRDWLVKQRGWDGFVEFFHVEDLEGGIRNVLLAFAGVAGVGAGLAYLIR

As to `CN(C)C1CN(C(=O)O[C@H]2/C=C/CN(C)C(C)(C)C(=O)NS(=O)(=O)c3ccc4c(c3)N(C[C@@H]3CC[C@H]32)C[C@@]2(CCCc3cc(Cl)ccc32)CO4)C1` [Example 214, [(3R,6R,7S,8E,22S)-6′-Chloro-11,12,12-trimethyl-13,15,15-trioxo-spiro[20-oxa-15-thia-1,11,14-triazatetracyclo[14.7.2.03,6.019,24]pentacosa-8,16,18,24-tetraene-22,1′-tetralin]-7-yl] 3-(dimethylamino)azetidine-1-carboxylate], on MCL-1 (class symbols), the Ki is less than 1 nM. In addition, the IC50 in the experiment with H929 cells is less than 500 nM.

With `CC1(C)OC/C=C/[C@H](OCCN2CCCC2)[C@@H]2CC[C@H]2CN2C[C@@]3(CCCc4cc(Cl)ccc43)COc3ccc(cc32)S(=O)(=O)NC1=O` [Example 66, (3R,6R,7S,8E,22S)-6′-Chloro-12,12-dimethyl-15,15-dioxo-7-(2-pyrrolidin-1-ylethoxy)spiro[11,20-dioxa-15-thia-1,14-diazatetracyclo[14.7.2.03,6.019,24]pentacosa-8,16,18,24-tetraene-22,1′-tetralin]-13-one], the Ki on MCL-1 (class symbols) is less than 1 nM. In addition, in the experiment with H929 cells, the IC50 was less than 500 nM.

As to `CON(C)C(=O)O[C@H]1/C=C/COC(C)(C)C(=O)NS(=O)(=O)c2ccc3c(c2)N(C[C@@H]2CC[C@H]21)C[C@@]1(CCCc2cc(Cl)ccc21)CO3` [Example 63, [(3R,6R,7S,8E,22S)-6′-Chloro-12,12-dimethyl-13,15,15-trioxo-spiro[11,20-dioxa-15-thia-1,14-diazatetracyclo[14.7.2.03,6.019,24]pentacosa-8,16,18,24-tetraene-22,1′-tetralin]-7-yl] N-methoxy-N-methyl-carbamate], the Ki on MCL-1 (class symbols) was less than 1 nM. In addition, the IC50 in the experiment with H929 cells is less than 500 nM.

Take `CCO[C@@H]1CCN(C(=O)O[C@H]2/C=C/COC(C)(C)C(=O)NS(=O)(=O)c3ccc4c(c3)N(C[C@@H]3CC[C@H]32)C[C@@]2(CCCc3cc(Cl)ccc32)CO4)C1` [Example 59, [(3R,6R,7S,8E,22S)-6′-Chloro-12,12-dimethyl-13,15,15-trioxo-spiro[11,20-dioxa-15-thia-1,14-diazatetracyclo[14.7.2.03,6.019,24]pentacosa-8,16,18,24-tetraene-22,1′-tetralin]-7-yl] (3R)-3-ethoxypyrrolidine-1-carboxylate]: the Ki on MCL-1 (class symbols) is less than 1 nM. Also, the IC50 in the experiment on H929 cells is less than 500 nM.

For the molecule `CO[C@@H]1/C=C/COC2(CC2)C(=O)NS(=O)(=O)c2ccc3c(c2)N(C[C@@H]2CC[C@H]21)C[C@@]1(CCCc2cc(Cl)ccc21)CO3` [Example 29, (3R,6R,7R,8E,22S)-6′-Chloro-7-methoxy-12,12-ethylene-15,15-dioxo-spiro[[11,20]dioxa-15-thia-1,14-diazatetracyclo[14.7.2.03,6.019,24]pentacosa[8,16(25),17,19(24)]tetraene-22,1′-tetralin]-13-one], the Ki on MCL-1 (class symbols) was less than 1 nM. Further, the half-inhibitory concentration (IC50) with H929 cells was less than 1000 nM.

With `CN(C)CCN(C)C(=O)O[C@H]1/C=C/COC(C)(C)C(=O)NS(=O)(=O)c2ccc3c(c2)N(C[C@@H]2CC[C@H]21)C[C@@]1(CCCc2cc(Cl)ccc21)CO3` [Example 55, [(3R,6R,7S,8E,22S)-6′-Chloro-12,12-dimethyl-13,15,15-trioxo-spiro[11,20-dioxa-15-thia-1,14-diazatetracyclo[14.7.2.0˜3,6.0˜19,24]pentacosa-8,16,18,24-tetraene-22,1′-tetralin]-7-yl] N-[2-(dimethylamino)ethyl]-N-methyl-carbamate], the Ki at MCL-1 (class symbols) was less than 1 nM. The half-inhibitory concentration (IC50) in the experiment on H929 cells is less than 500 nM.

On to `Cc1cc(CC(=O)NS(=O)(=O)c2ccc3c(c2)N(CC2CCC2)C[C@@]2(CCCc4cc(Cl)ccc42)CO3)nn1C` [Example 15, 2-(1,5-Dimethylpyrazol-3-yl)-N-[(3S)-6′-chloro-5-(cyclobutylmethyl)spiro[2,4-dihydro-1,5-benzoxazepine-3,1′-tetralin]-7-yl]sulfonyl-acetamide], for which the Ki at MCL-1 (numeric values) was 8.7 nM. For the same molecule, in the experiment with H929 cells, the half-maximal inhibitory concentration (IC50) was more than 1000 nM.

With `CO[C@@H]1/C=C/CNCC(C)(C)C(=O)NS(=O)(=O)c2ccc3c(c2)N(C[C@@H]2CC[C@H]21)C[C@@]1(CCCc2cc(Cl)ccc21)CO3` [Example 68, (3R,6R,7R,8E,23S)-6′-Chloro-7-methoxy-13,13-dimethyl-16,16-dioxo-spiro[21-oxa-16-thia-1,11,15-triazatetracyclo[15.7.2.03,6.020,25]hexacosa[8,17(26),18,20(25)]tetraene-23,1′-tetralin]-14-one], the Ki at MCL-1 (class symbols) was 1 to 100 nM. Also, the IC50 with H929 cells was more than 1000 nM.

For the molecule `CO[C@@H]1/C=C/CN(C)CC2(CCC2)C(=O)NS(=O)(=O)c2ccc3c(c2)N(C[C@@H]2CC[C@H]21)C[C@@]1(CCCc2cc(Cl)ccc21)CO3` [Example 27, (3R,6R,7R,8E,23S)-6′-Chloro-7-methoxy-11-methyl-13,13-(1,3-propylene)-16,16-dioxo-spiro[21-oxa-16-thia-1,11,15-triazatetracyclo[15.7.2.03,6.020,25]hexacosa[8,17(26),18,20(25)]tetraene-23,1′-tetralin]-14-one], the Ki at MCL-1 (class symbols) was in the range of 1 to 100 nM. Also, in the experiment on H929 cells, the IC50 was more than 1000 nM.

On to `CN(C)C(=O)CO[C@H]1/C=C/COC(C)(C)C(=O)NS(=O)(=O)c2ccc3c(c2)N(C[C@@H]2CC[C@H]21)C[C@@]1(CCCc2cc(Cl)ccc21)CO3` [Example 140, 2-[(3R,6R,7S,8E,22S)-6′-Chloro-12,12-dimethyl-13,15,15-trioxo-spiro[11,20-dioxa-15-thia-1,14-diazatetracyclo[14.7.2.03,6.019,24]pentacosa-8,16,18,24-tetraene-22,1′-tetralin]-7-yl]oxy-N,N-dimethyl-acetamide], for which the Ki at MCL-1 (class symbols) is less than 1 nM. In addition, in the experiment on H929 cells, the half-inhibitory concentration (IC50) was less than 500 nM.

On to `CN(C)C(=O)CO[C@H]1/C=C/COC2(CC2)C(=O)NS(=O)(=O)c2ccc3c(c2)N(C[C@@H]2CC[C@H]21)C[C@@]1(CCCc2cc(Cl)ccc21)CO3` [Example 142, 2-[(3R,6R,7S,8E,22S)-6′-Chloro-12,12-ethylene-13,15,15-trioxo-spiro[11,20-dioxa-15-thia-1,14-diazatetracyclo[14.7.2.03,6.019,24]pentacosa-8,16,18,24-tetraene-22,1′-tetralin]-7-yl]oxy-N,N-dimethyl-acetamide], for which the Ki at MCL-1 (class symbols) was less than 1 nM. The IC50 in the experiment on H929 cells was less than 1000 nM.

`CO[C@@H]1/C=C/CN(C)[C@@H](C(C)C)C(=O)NS(=O)(=O)c2ccc3c(c2)N(C[C@@H]2CC[C@H]21)C[C@@]1(CCCc2cc(Cl)ccc21)CO3` [Example 129, (3R,6R,7R,8E,12S,22S)-6′-Chloro-7-methoxy-11-methyl-12-isopropyl-15,15-dioxo-spiro[20-oxa-15-thia-1,11,14-triazatetracyclo[14.7.2.03,6.019,24]pentacosa-8,16,18,24-tetraene-22,1′-tetralin]-13-one]: the Ki on MCL-1 (class symbols) was in the range of 1 to 100 nM. Besides, the IC50 in the experiment on H929 cells was more than 1000 nM.

As to `COC[C@@H]1OC/C=C/[C@@H](OC)[C@@H]2CC[C@H]2CN2C[C@@]3(CCCc4cc(Cl)ccc43)COc3ccc(cc32)S(=O)(=O)NC1=O` [Example 125, (3R,6R,7R,8E,12S,22S)-6′-Chloro-7-methoxy-12-(methoxymethyl)-15,15-dioxo-spiro[11,20-dioxa-15-thia-1,14-diazatetracyclo[14.7.2.03,6.019,24]pentacosa-8,16(25),17,19(24)-tetraene-22,1′-tetralin]-13-one], the Ki on MCL-1 (class symbols) was less than 1 nM. Moreover, in the experiment with H929 cells, the half-inhibitory concentration (IC50) was more than 1000 nM.

For the molecule `CC1(C)OC/C=C/[C@H](OC(=O)NC2COC2)[C@@H]2CC[C@H]2CN2C[C@@]3(CCCc4cc(Cl)ccc43)COc3ccc(cc32)S(=O)(=O)NC1=O` [Example 192, [(3R,6R,7S,8E,22S)-6′-Chloro-12,12-dimethyl-13,15,15-trioxo-spiro[11,20-dioxa-15-thia-1,14-diazatetracyclo[14.7.2.03,6.019,24]pentacosa-8,16,18,24-tetraene-22,1′-tetralin]-7-yl] N-(oxetan-3-yl)carbamate], the Ki on MCL-1 (class symbols) is less than 1 nM. The half-maximal inhibitory concentration (IC50) in the experiment on H929 cells was less than 500 nM.

As for `O=C(Cc1nccs1)NS(=O)(=O)c1ccc2c(c1)N(CC1CCC1)C[C@@]1(CCCc3cc(Cl)ccc31)CO2` [Example 16, N-[(3S)-6′-Chloro-5-(cyclobutylmethyl)spiro[2,4-dihydro-1,5-benzoxazepine-3,1′-tetralin]-7-yl]sulfonyl-2-thiazol-2-yl-acetamide], the Ki on MCL-1 (numeric values) came to 9 nM. In addition, in the experiment on H929 cells, the concentration for half-maximal inhibition (IC50) is more than 1000 nM.

As for `CO[C@H]1/C=C/C[C@H](C)CC(=O)NS(=O)(=O)c2ccc3c(c2)N(C[C@@H]2CC[C@H]21)C[C@@]1(CCCc2cc(Cl)ccc21)CO3` [Example 82, (3R,6R,7S,8E,11S,22S)-6′-Chloro-7-methoxy-11-methyl-15,15-dioxo-spiro[20-oxa-15-thia-1,14-diazatetracyclo[14.7.2.03,6.019,24]pentacosa-8,16(25),17,19(24)-tetraene-22,1′-tetralin]-13-one], the Ki on MCL-1 (class symbols) was 1 to 100 nM. The half-maximal inhibitory concentration (IC50) in the experiment with H929 cells was more than 1000 nM.

Consider `CO[C@@H]1/C=C/C[C@H](C)[C@@H](CC(=O)N2CC(F)(F)C2)C(=O)NS(=O)(=O)c2ccc3c(c2)N(C[C@@H]2CC[C@H]21)C[C@@]1(CCCc2cc(Cl)ccc21)CO3` [Example 90, (3R,6R,7R,8E,11S,12R,22S)-6′-Chloro-12-[2-(3,3-difluoroazetidin-1-yl)-2-oxo-ethyl]-7-methoxy-11-methyl-15,15-dioxo-spiro[20-oxa-15-thia-1,14-diazatetracyclo[14.7.2.03,6.019,24]pentacosa-8,16,18,24-tetraene-22,1′-tetralin]-13-one], for which the Ki at MCL-1 (class symbols) is less than 1 nM. Further, the IC50 in the experiment with H929 cells was more than 1000 nM.
